The test system of assay [1] is Cavia porcellus. Put plainly: Inhibition of increase in specific airway resistance by antigen inhalation in conscious guinea pig at a dose of 10 mg/kg administered perorally 1 hr before challenge in asthma model. To be noted: route oral. It counts as functional.
Assay [2] addresses T1, Prostaglandin D2 receptor (Homo sapiens, UniProt Q13258).
T1 sequence (Q13258 whole entry): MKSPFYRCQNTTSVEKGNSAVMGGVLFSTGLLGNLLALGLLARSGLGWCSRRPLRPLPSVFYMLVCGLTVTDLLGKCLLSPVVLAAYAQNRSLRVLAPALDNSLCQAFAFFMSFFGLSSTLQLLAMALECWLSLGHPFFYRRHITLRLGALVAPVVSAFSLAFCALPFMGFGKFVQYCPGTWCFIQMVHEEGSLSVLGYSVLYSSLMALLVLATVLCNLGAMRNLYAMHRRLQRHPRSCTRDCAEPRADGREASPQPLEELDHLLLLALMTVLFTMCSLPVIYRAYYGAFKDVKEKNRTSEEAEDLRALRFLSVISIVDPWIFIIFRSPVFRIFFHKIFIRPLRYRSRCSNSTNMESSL
Put plainly: In vitro inhibition of cAMP formation evoked by prostaglandin D2 receptor in human platelets. It counts as functional. For orientation: Cyclic AMP is a second messenger, typically raised through Gs and lowered through Gi signalling.

For assay [3], the system named is Cavia porcellus. Put plainly: In vivo inhibition of antigen induced increase in intranasal pressure in actively sensitized guinea pig after dose of 10 mg/kg. It counts as functional.
Assay [4] deals with T1, Prostaglandin D2 receptor. Put plainly: In vitro inhibition of [3H]- PGD-2 radioligand binding to prostaglandin D2 receptor on human platelet membrane.

With `COc1cc2c(cc1S(=O)(=O)N[C@@H]1[C@@H]3CC[C@@H](C3)[C@H]1C/C=C\CCCC(=O)O)oc1ccccc12`, the inhibition in vivo at 10 mg/kg was 42% in the assay with Cavia porcellus [1] and 81% with Cavia porcellus [3] (Cavia porcellus). The IC50 turned out to be 52 nM in assay [2] and 24 nM in assay [4]. Moreover, in the assay on Cavia porcellus [3] (10 mg/kg), the Inhibition is 82%.

For orientation: inhibition in vivo means the change of the read-out against control, counted positive when it falls. What is called IC50 is the concentration at which inhibition is half-maximal. In general, Inhibition refers to the share of the control response that was lost under treatment.

The record behind these values is ChEMBL document CHEMBL1145791, “Synthesis and biological activity of various derivatives of a novel class of potent, selective, and orally active prostaglandin D2 receptor antagonists. 1. Bicyclo[2.2.1]heptane derivatives” (J Med Chem, 2003).
